Data set [1] in a line: manual euglycemic clamp, glucose infusion rate (PD) after subcutaneous insulin aspart. In kind it is in vivo, healthy Chinese male volunteers. The conditions noted are these: for GIRmax (maximum glucose infusion rate): 0.2 IU/kg NovoRapid s.c., 8-hour manual euglycemic clamp; for GIRmax (maximum glucose infusion rate) / tGIRmax (time of GIRmax) / AUCGIR,0-8h: mean ± SD; for GIR AUC from time 0.5 to 2 hours after correction for clamped glucose from 0.5 to 2 hours / AUCGIR,0-8h after correction for the overall clamped glucose / tGIRmax (time of GIRmax) / AUCGIR,0-8h: 0.2 IU/kg s.c.; for AUCGIR,0-8h after correction for the overall clamped glucose: analysis of variance with clamped glucose as covariate; for AUCGIR,0-8h: uncorrected. How it is done:
(§1) From 3 days before the dosing day on, participants were instructed to abstain from drinking alcohol, smoking tobacco, engaging in strenuous exercise, and ingesting caffeine. Participants came to the research center at approximately 6:00 PM the day before drug administration to ensure an overnight fasting condition of 10 to 12 hours the next morning. Throughout the clamp, the subjects remained fasting and in a supine position. A 20‐gauge polyethylene cannula was inserted into an antecubital vein for infusion of 20% dextrose, and a second 18‐gauge catheter was inserted retrogradely into a wrist vein on the dorsum of the hand to draw blood. The hand for blood drawing was maintained continuously in a heated blanket at 55 to 65°C, allowing sampling of arterialized venous blood. After recording the basal blood glucose level (defined as the mean of the glucose measurement at −30, −20, and −10 minutes), the subjects received a 0.2 IU/kg dose of NovoRapid (Novo Nordisk, Bagsværd, Denmark) by subcutaneous injection into a lifted abdominal skin fold. Blood samples were obtained at the bedside for immediate determination of whole blood glucose concentrations every 5 minutes from 0 to 240 minutes and every 10 minutes from 240 to 480 minutes. During the manual euglycemic clamp procedure, the glucose infusion rate (GIR) was adjusted on the basis of the obtained glucose measurements to maintain euglycemia. A 4‐mL blood sample was collected at each of the following points for analysis of C‐peptide, human insulin, and IAsp levels: −30 and 0 minutes (before dosing) and 10, 20, 30, 40, 50, 60, 90, 120, 150, 180, 210, 240, 270, 300, 360, 420, and 480 minutes after dosing. The baselines for each of C‐peptide, human insulin, and IAsp were defined as the mean of the −30 and 0 minute (before dosing) measurements.
(§2) Whole blood glucose concentrations were tested with a glucose analyzer (Biosen C_line GP+, Neckar Healthcare, Co., Ltd., Magdeburg, Germany) using an automated glucose oxidase technique with a measuring range of 9 to 900 mg/dL and a high precision of 1.5%. Human insulin levels were determined using an ultrasensitive enzyme‐linked immunosorbent assay (ELISA) with monoclonal antibodies that have little or no cross‐reactivity to insulin analogs whose ranges of quantification were 0.0065 to 0.87 ng/mL for human insulin.[22] C‐peptide levels were analyzed using a solid‐phase 2‐site ELISA method based on the direct sandwich technique in which 2 monoclonal antibodies are directed against separate antigenic determinants on the C‐peptide molecule with a measuring range of 0.06 to 9 ng/mL, with an intra‐assay coefficient of variation of 2.87% to 4.50%.[23] IAsp concentrations were assessed by means of an ultra‐performance liquid chromatography–tandem mass spectrometry method, [25] at Covance Laboratories in Shanghai that had no detectable cross‐reactivity with human insulin. Solid‐phase extraction was performed. Liquid chromatography separation was achieved using an Acquity UPLC CSH C18+ column (50 × 2.1 × 1.7 μm; Waters Corp., Milford, Massachusetts). A 20‐μL injection with a 0.60 mL/min flow of water with 0.1% of acetic acid (solvent A) and acetonitrile with 0.1% of acetic acid (solvent B) was used. The gradient elution was as follows: the initial 17.5% B was increased to 29.5% over 3.0 minutes, 29.5% to 50.0% over 0.5 minutes, 50% to 98% over 0.5 minutes, remained at 98% for 1.5 minutes, and returned to initial conditions over 0.5 minute. A mass spectrometer used in the positive ionization mode (ESI+) was used for the analysis of the compounds. […] The cone voltage and collision energy were adjusted to maximize the intensity of the protonated ion and to optimize the signal of aspart insulin: m/z 1133.4→971.8 and for the internal standard bovine insulin 1123.5→963.8. The lower limit of quantification was 0.2 ng/mL, the inter‐ and intravariability were 7.0% and 7.9%, respectively. […]

The nature of data set [2]: adverse reactions/events during clamp and follow-up. In kind it is in vivo, healthy Chinese male volunteers. The conditions noted are these: 33 healthy men; 0.2 IU/kg s.c.; clamp procedures and follow-up period. The source says: Thirty‐three healthy male volunteers (22 in group A and 11 in group B) undergoing a manual euglycemic clamp study were enrolled in this study.

A short description of data set [3]: pharmacokinetics of insulin aspart during the euglycemic clamp (UPLC-MS/MS). The conditions noted are these: 0.2 IU/kg s.c., mean ± SD; for CIAsp,max (maximum plasma concentration of IAsp): UPLC-MS/MS. In kind it is in vivo, healthy Chinese male volunteers. As for the experimental part:
as §1, §2

For data set [4] the following is noted: PK corrected by C-peptide; cited from earlier work. As for the experimental part: In studies in which specific assays for the tested insulin are lacking, C‐peptide was always used to correct endogenous insulin.[37], [38] Some researchers[39] still doubted the use of C‐peptide to correct endogenous insulin because some PK parameters were not consistent (eg, a peak of glargine in plasma occurring at 12 hours[40] differs from those observed in subjects with type 1 diabetes where the increase occurs between ≈3 and 6 hours after the first injection[41] and at steady state[42]). Owens[19] reported the exogenous insulin estimated from C‐peptide was nearly the same as what was true ...

Take insulin aspart [IAsp]: the “GIRmax (maximum glucose infusion rate)” value in data set [1] (group A ((CPpostdosing)max > CPbaseline, n = 22)) is reported as 8.46 ± 2.43 mg/kg/min. In data set [1] (group A (n = 22)), the “GIR AUC from time 0.5 to 2 hours after correction for clamped glucose from 0.5 to 2 hours” value amounted to 596 ± 38 mg/kg, the “AUCGIR,0-8h after correction for the overall clamped glucose” value is recorded as 1789 ± 107 mg/kg, the “tGIRmax (time of GIRmax)” value is 111 ± 40.6 min and the “AUCGIR,0-8h” value came to 1815 ± 551 mg/kg. Further, in data set [1] (group B ((CPpostdosing)max ≤ CPbaseline, n = 11)), the “GIRmax (maximum glucose infusion rate)” value is 7.90 ± 1.68 mg/kg/min. Further, in data set [1] (group B (n = 11)), the “GIR AUC from time 0.5 to 2 hours after correction for clamped glucose from 0.5 to 2 hours” value is 520 ± 56 mg/kg, the “AUCGIR,0-8h after correction for the overall clamped glucose” value is on record as 1380 ± 157 mg/kg, the “tGIRmax (time of GIRmax)” value was 113 ± 33.9 min and the “AUCGIR,0-8h” value turned out to be 1327 ± 306 mg/kg. The “adverse reaction after injection” value in data set [2] is “no adverse reaction in any subject”. Further, in data set [3] (group A (n = 22)), the “CIAsp,max (maximum plasma concentration of IAsp)” value came out at 4.72 ± 1.46 ng/mL, the “AUCIAsp,0-8h” value came out at 527 ± 97.1 ng·min/mL and the “time of CIAsp,max” value is 44.8 ± 11.0 min. For the same substance, in data set [3] (group B (n = 11)), the “CIAsp,max (maximum plasma concentration of IAsp)” value stood at 5.53 ± 1.61 ng/mL, the “AUCIAsp,0-8h” value was 543 ± 97.2 ng·min/mL and the “time of CIAsp,max” value was 47.3 ± 11.0 min.

Consider glargine, for which, in data set [4], the “time of peak of glargine in plasma” value was 12 h.

The values are drawn from publication PMC9546084, “Effects of Unsuppressed Endogenous Insulin on Pharmacokinetics and/or Pharmacodynamics of Study Insulin in the Healthy: A Retrospective Study” (Clinical Pharmacology in Drug Development, 2022).
